Data from patent US20240246980A1, “MODULATORS OF MAS-RELATED G-PROTEIN RECEPTOR D AND RELATED PRODUCTS AND METHODS” (Escient Pharmaceuticals, Inc., priority 2022, published 2024).

biological target: human MRGPRD (Homo sapiens, UniProt Q8TDS7); assay: MRGPRD antagonist activity, IP-One HTRF assay in CHO cells stably expressing human MRGPRD (versus 100 μM β-Alanine agonist); format: cell-based
Method in brief: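 Cells (20,000/well, plated overnight) received antagonist and agonist in buffer with 5.7 mM Tris-HCl, 43 mM NaCl and 50 mM LiCl at pH 8. Incubation ran 1 h at 37 °C, then 1 h at room temperature, before IP-1 HTRF detection. IC50 was fitted from the HTRF ratio, and percent antagonism was taken relative to the maximum efficacy response, given as averages with SEM.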

human MRGPRD, sequence (Q8TDS7 whole entry): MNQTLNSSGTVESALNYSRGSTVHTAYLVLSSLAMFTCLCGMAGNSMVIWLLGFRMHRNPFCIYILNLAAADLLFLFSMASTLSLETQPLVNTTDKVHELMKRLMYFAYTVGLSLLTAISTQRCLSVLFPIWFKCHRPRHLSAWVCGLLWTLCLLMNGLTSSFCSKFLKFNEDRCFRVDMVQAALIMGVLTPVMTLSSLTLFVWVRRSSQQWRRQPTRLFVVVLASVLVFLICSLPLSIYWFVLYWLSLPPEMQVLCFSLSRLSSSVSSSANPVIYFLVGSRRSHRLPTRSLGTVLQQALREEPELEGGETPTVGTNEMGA

Row | SMILES | IC50 [nM]
1 | COc1cccc(-c2nn([C@@H]3CCCN(C(=O)Nc4ccc(N(C)C)cc4)C3)c3ncccc23)c1 [Compound 20-1, (R)—N-(4-(dimethylamino)phenyl)-3-(3-(3-methoxyphenyl)-1H-pyrazolo[3,4-b]pyridin-1-yl)piperidine-1-carboxamide] | < 100
2 | COc1cccc(-c2nn([C@@H]3CCCN(C(=O)Nc4cccc(N(C)C)c4)C3)c3ncccc23)c1 [Compound 20-2] | < 100
3 | COc1cccc(-c2nn([C@H]3CCCN(C(=O)Nc4cccc(N(C)C)c4)C3)c3ncccc23)c1 [Compound 20-3] | 1000 to 3000
4 | COc1cccc(-c2nn([C@H]3CCCN(C(=O)Nc4ccc(N(C)C)cc4)C3)c3ncccc23)c1 [Compound 20-4] | 1000 to 3000
5 | COc1cccc(-c2nc([C@@H]3CCN(C(=O)Nc4ccccc4F)C3)n3ccccc23)c1 [Compound 21-1, (R)—N-(2-fluorophenyl)-3-(1-(3-methoxyphenyl)imidazo[1,5-a]pyridin-3-yl)pyrrolidine-1-carboxamide] | 500 to 1000
6 | COc1cccc(-c2nc([C@H]3CCN(C(=O)Nc4ccccc4F)C3)n3ccccc23)c1 [Compound 21-2] | 1000 to 3000
7 | CNC(=O)N1CCC[C@H]1c1nc(-c2cccc(OC)c2)c2ccccn12 [Compound 21-3] | > 3000
8 | CNC(=O)N1CCC[C@@H]1c1nc(-c2cccc(OC)c2)c2ccccn12 [Compound 21-4] | > 3000
9 | COc1cccc(-c2nc([C@@H]3CCCN3C(=O)Nc3ccc(N(C)C)cc3)n3ccccc23)c1 [Compound 21-5] | > 3000
10 | COc1cccc(-c2nc([C@H]3CCCN3C(=O)Nc3ccc(N(C)C)cc3)n3ccccc23)c1 [Compound 21-6] | > 3000

The remaining lines, values ahead:

Row | IC50 [nM] | SMILES
11 | 1000 to 3000 | COc1cccc(-c2nc(C3CCCN3C(=O)Nc3ccccc3F)n3ccccc23)c1 (centres unmarked) [Compound 22-1, N-(2-fluorophenyl)-2-(1-(3-methoxyphenyl)imidazo[1,5-a]pyridin-3-yl)pyrrolidine-1-carboxamide]
12 | > 3000 | COc1cccc(-c2nc(C3CN(C(=O)Nc4cccc(N(C)C)c4)C3)n3ccccc23)c1 [Compound 23-1, N-(3-(dimethylamino)phenyl)-3-(1-(3-methoxyphenyl)imidazo[1,5-a]pyridin-3-yl)azetidine-1-carboxamide]
13 | > 3000 | COc1cccc(-c2nc(C3CN(C(=O)Nc4ccc(N(C)C)cc4)C3)n3ccccc23)c1 [Compound 23-2]
14 | 100 to 500 | COc1cccc(-c2nn(-c3cccc(C(=O)Nc4ccc(N(C)C)cc4)c3)c3ncccc23)c1 [Compound 24-1, N-(4-(dimethylamino)phenyl)-3-(3-(3-methoxyphenyl)-1H-pyrazolo[3,4-b]pyridin-1-yl)benzamide]
15 | 500 to 1000 | COc1cccc(-c2nn(-c3cccc(C(=O)Nc4cccc(N(C)C)c4)c3)c3ncccc23)c1 [Compound 24-2]
16 | 1000 to 3000 | COc1cccc(-c2nc(-c3ccc(C(=O)Nc4ccc(N(C)C)cc4)s3)n3ccccc23)c1 [Compound 25-1, N-(4-(dimethylamino)phenyl)-5-(1-(3-methoxyphenyl)imidazo[1,5-a]pyridin-3-yl)thiophene-2-carboxamide]
17 | < 100 | COc1cccc(-c2nc(C3CCCN(C(=O)Nc4ccc(N(C)C)cc4)C3)c3ccccn23)c1 (centres unmarked) [Compound 26-1, N-(4-(dimethylamino)phenyl)-3-(3-(3-methoxyphenyl)imidazo[1,5-a]pyridin-1-yl)piperidine-1-carboxamide]
